# Measured values as given in publication PMC5842274, “Anti-GD2 Immunoliposomes for Targeted Delivery of the Survivin Inhibitor Sepantronium Bromide (YM155) to Neuroblastoma Tumor Cells” (Pharmaceutical Research, 2018).
# Where two headings read alike, the source gives them in different places.
# Legend:
# [1] = system: KCNR cells; test: alamarBlue viability assay; format: cell-based; conditions: 24 h incubation, read-out: IC50 (cell viability)
# Experimental: Efficacy of YM155 loaded liposomes (targeted and non-targeted control liposomes) was studied on KCNR by alamarBlue viability assay (Thermo Fischer Scientific), according to the supplier’s instruction. KCNR cells were seeded at 20 × 10^3 cells/well in 96 well Greiner polystyrene plates (Sigma Aldrich) in complete DMEM medium and allowed to adhere overnight. The medium was replaced by cell culture medium supplemented with YM155 or YM155 liposomal formulations at concentrations ranging from 0.8 to 100 nM, after which the cell culture were incubated for 24 h at 37°C. Control experiments included incubations with empty liposomes (i.e. without YM155) at equivalent TL concentrations in the range of 0.08–11 μM TL. After 24 h of incubation, medium was replaced with drug-free medium containing alamarBlue reagent (10 vol%), after which cells were incubated for an extra 3 h at 37°C. Fluorescence was quantified with a microplate reader (Mithras LB940) and used to calculate the relative percentage of living cells normalized against control cells that had not been treated with YM155. IC50 values were calculated by curve fitting using non-linear regression in Graph Pad Prism 6.0.
# [2] = Tumor accumulation of YM155 in subcutaneous KCNR tumor xenografts; format: in vivo, mice; conditions: single i.v. 1 mg/kg
# Experimental: Animal experiments were conducted in compliance with the national regulations and have been approved by the local ethical committee for animal experimentation. NMRI nu/nu female mice (25 g, Charles River, Massachusetts, USA) were housed in a temperature-controlled room (approximately 22°C) with 55 to 65% relative humidity, a photoperiod of 12/12 h with free access to water and pelleted rodent food. The mice were challenged with KCNR neuroblastoma (passage 1–2) derived from DAG102776 by serial xenotransplantation in both flanks. When the tumor growth reached the size of approximately 8 × 8 mm, mice were randomly divided in three groups that were injected intravenously with either free YM155 dissolved in HBS (1 mg/kg, n = 11), YM155 loaded anti-GD2-immunoliposomes (3 μmol TL/kg diluted in HBS, equivalent to 1 mg/kg YM155, n = 11), or an equivalent dose of YM155 loaded control liposomes (n = 11). […]
# (§1) Pharmacokinetic analysis of the in-vivo data was performed using the Pk Solver 2.0 add-in template for Microsoft Excel, as described previously ([35]). Pharmacokinetic parameters were determined by non-compartmental analysis (NCA) using linear-logarithmic trapezoidal model fitting, or by compartmental analysis (CA) using 1-compartment model fitting.
# [3] = Pharmacokinetic pilot study, YM155 in blood/plasma after single i.v. administration; format: in vivo, mice; conditions: for half-life / Vd: 1 mg/kg
# Experimental: Animal experiments were conducted in compliance with the national regulations and have been approved by the local ethical committee for animal experimentation. NMRI nu/nu female mice (25 g, Charles River, Massachusetts, USA) were housed in a temperature-controlled room (approximately 22°C) with 55 to 65% relative humidity, a photoperiod of 12/12 h with free access to water and pelleted rodent food. The mice were challenged with KCNR neuroblastoma (passage 1–2) derived from DAG102776 by serial xenotransplantation in both flanks. When the tumor growth reached the size of approximately 8 × 8 mm, mice were randomly divided in three groups that were injected intravenously with either free YM155 dissolved in HBS (1 mg/kg, n = 11), YM155 loaded anti-GD2-immunoliposomes (3 μmol TL/kg diluted in HBS, equivalent to 1 mg/kg YM155, n = 11), or an equivalent dose of YM155 loaded control liposomes (n = 11). At designated time points (i.e. 5 min, 9 min, 15 min, 30 min, 1 h, 4 h, 8 h, 24 h, 48 h and 72 h), blood samples (approximately 0.5 ml per sampling time point) were collected in tubes containing EDTA as anticoagulant and mice were sacrificed. Blood samples and excised tumors were stored at −80°C until analysis of their YM155 concentration by liquid chromatography-tandem mass spectrometry (LC-MS/MS) ([34]).
# as §1
# [4] = cited from earlier work
# [5] = system: neuroblastoma cell lines; conditions: most neuroblastoma cell lines; Table I, no reference given; cited from earlier work
# [6] = Table I, no reference given; cited from earlier work
smiles,measurement,setting,value
"COCCn1c2c([n+](Cc3cnccn3)c1C)C(=O)c1ccccc1C2=O [YM155, Sepantronium bromide]",IC50,[1],27 nM
same,Time intratumor levels of YM155 could be detected post injection,[2],up to 24 h
same,AUC(0-inf),"[3]; female, NMRI nu/nu, mouse, iv, single i.v. 1 mg/kg, NCA, blood/plasma",136 ng·h/mL
same,half-life,"[3]; female, NMRI nu/nu, mouse, plasma, iv, single i.v. 1 mg/kg YM155, female mice with KCNR xenografts, non-compartmental analysis, read-out: t1/2 (NCA) (converted)",24 min
same,Vd,"[3]; female, NMRI nu/nu, mouse, plasma, iv, single i.v. 1 mg/kg, NCA, read-out: Vss",2.47 L/kg
same,Vd,"[3]; female, NMRI nu/nu, mouse, plasma, iv, single i.v. 1 mg/kg, NCA, read-out: Vz",4.65 L/kg
same,half-life,"[3]; female, NMRI nu/nu, mouse, plasma, iv, single i.v. 1 mg/kg, compartmental analysis, 1-compartment model, read-out: CA t1/2 (converted)",12 min
same,clearance,"[3]; female, NMRI nu/nu, mouse, plasma, iv, single i.v. 1 mg/kg, NCA",122 mL/min/kg
same,MRT inf,"[3]; female, NMRI nu/nu, mouse, plasma, iv, single i.v. 1 mg/kg, NCA, read-out: MRT0-∞",20.4 min
same,Time plasma levels were detectable post administration,[3]; single i.v. 1 mg/kg,about 8 h
same,Previously reported half-life,[4],~ 1 h
same,Plasma half-life,[4]; mice and rats,1 to 2 h
same,IC50,[5],Low nM range for most neuroblastoma cell lines
same,LogP,[6],−3.7
same,Solubility in water,[6],"At least 0,5 mg/ml"
same,pKa,[6],5.3
